Values of other authors, collected in patent US20100069410A1 (Emisphere Technologies Inc., priority 2006, published 2010).

Settings: orally administered, Physicians' Desk Reference 1994

For `Nc1nc2c(ncn2COCCO)c(=O)[nH]1` [acyclovir, 9-(2-hydroxyethoxymethyl) guanine], the reported oral bioavailability is listed as 15-30%.
